Laboratory results published in PMC8379256, “A xanthene derivative, DS20060511, attenuates glucose intolerance by inducing skeletal muscle-specific GLUT4 translocation in mice” (Communications Biology, 2021).
Values joined by “and” are separate entries in the source; they are usually repeats but may differ in a detail not shown here. Identical values can stand only once. Like-named read-outs stand apart in the source and are kept apart here.

How the values were obtained:
Assay type in all cases: in vivo, mouse
C57BL/6 mice = assay: Blood glucose after DS20060511 alone in fed or overnight food-deprived mice; settings: for Blood glucose: 30 mg/kg; for blood glucose levels (in words): 30 mg kg−1
Experimental: Fig. 2 Treatment with DS20060511 decreases the blood glucose levels via inducing GLUT4 translocation and increasing skeletal muscle glucose uptake. a, b Blood glucose levels after treatment with DS20060511 (30 mg kg^−1) in C57BL/6 mice that had received continued access to food (a) and mice that had been denied access to food overnight (b) (n = 8). Values shown are means ± SEM. **P < 0.01 vs. 0 min by one-way ANOVA followed by Dunnett’s test. c Blood glucose and plasma insulin levels during oral GTT in the C57BL/6 mice (n = 5–6). The mice received oral administration of vehicle or DS20060511 at the indicated dose, 15 min prior to glucose administration (1.5 g kg^−1). Values shown are means ± SEM. *P < 0.05, **P < 0.01 vs. vehicle by one-way ANOVA followed by Williams’ test. d [^3H]-2-DG uptake in the soleus muscle, gastrocnemius muscle (Gastro.), heart, and white adipose tissue (WAT) at 60 min during the intraperitoneal GTT in the C57BL/6 mice (n = 3). The mice received oral administration of vehicle or DS20060511 (30 mg kg^−1), 15 min prior to glucose administration (1 g kg^−1 glucose containing [^3H]-2-DG). […] Uncropped blots for e can be found in Supplementary Fig. 6.

[1] = Tissue concentrations 75 min after oral administration; settings: for concentration at 75 min: 30 mg/kg, 30 mg/kg oral, individual mice
Experimental: C57BL/6 mice that had been denied access to food overnight received the indicated oral dose of DS20060511, and blood samples were collected from the tail vein at the indicated timepoints. Plasma samples for quantitation of DS20060511 were prepared by centrifugation. Another group of mice received oral administration DS20060511 (30 mg kg^−1) and euthanized 75 min later. The soleus and gastrocnemius muscles, heart, and inguinal WAT were removed and homogenized in water (5 vol.) for quantitation of the drug concentrations. Plasma samples and tissue homogenates were analyzed by LC-MS/MS (Nexera MP System, SHIMADZU, Kyoto, Japan; API4000 System, SCIEX, Framingham, MA). The tissue concentrations of the compound were calculated by assuming the volume of 1 g of tissue is 1 mL. Evaluation of the metabolic stability of the compound to mouse and human cytochrome P450 (CYP) was conducted as follows. The test compound (1 μM) was incubated with pooled liver microsomes (0.1 mg mL^−1) in sodium phosphate buffer (100 mM, pH 7.4) at 37 °C with an NADPH generating system: β-nicotinamide adenine dinucleotide phosphate (β-NADP) 1 mM, D-glucose 6-phosphate (G-6-P) 10 mM, glucose 6-phosphate dehydrogenase (G-6-PDH) 1 U mL^−1, and magnesium chloride 3.3 mM. After 30 min incubation, the reaction was terminated by addition of acetonitrile and samples were analyzed by LC-MS/MS. The results were expressed as the amount of compound remaining (expressed as a percentage), based on the ratio of the relative area to that in the control (without reaction).

db/db mice = assay: Repeated (28-day) DS20060511 treatment of db/db mice; design: Blood glucose after refeeding AUC: unit not given here; settings: for Blood glucose after refeeding / Blood glucose after refeeding AUC: db/db
Experimental: db/db mice were acclimatized to a 6 h restricted feeding pattern from 10 am to 4 pm prior to the start of the experiment. For 28 days from 6 weeks of age, the mice received oral administration of 10 mg kg^−^1 of DS20060511 or vehicle once a day, 15 min prior to their feeding. On day 1 and day 28, the blood glucose levels were measured between 10 am to 4 pm. Blood glucose levels were measured using Glutest Every in blood samples collected from the tail vein. Daily food intake was monitored throughout the study, and the body weight, blood glucose, and plasma insulin were measured on day 1 and day 28. The hemoglobin A1c (HbA1c) level was also measured with a HLC-723G8 Automated Glycohemoglobin Analyzer on day 1 and day 28 (Tosoh, Tokyo, Japan). The triceps surae muscle (skeletal muscle), heart, epididymal WAT, and liver were excised immediately after euthanasia, and the tissue weights were measured on day 29. The glycogen contents of the muscle, heart, and liver were measured as described previously,[52] with some modifications. In brief, each tissue sample (50–100 mg) was weighed and boiled in 0.75 mL of 8 M KOH. After cooling, 0.25 mL of 1 M Na2SO4, followed by 2 mL of 99.5% ethanol, was added to precipitate the glycogen. The samples were centrifuged and the glycogen precipitates were dissolved in distilled water. Glycogen was degraded to glucose by treatment with amyloglucosidase (Sigma–Aldrich) at 55 °C for 60 min, and the glucose concentration was determined with Glucose CII Test Wako (FUJIFILM Wako Pure Chemical).

[2] = db/db mice, 10 mg/kg, Day 1, individual animals, 10 mg/kg
[3] = db/db mice, 10 mg/kg, Day 28, individual animals, 10 mg/kg

## COc1ccc2c(C)c(C(=O)O)ccc2c1C1C2=C(CC(C)(C)CC2=O)OC2=C1C(=O)CC(C)(C)C2 [DS20060511]
C57BL/6 mice; Non-fasted, 0 min, individual mice
  Blood glucose: 125 mg/dL and 139 mg/dL and 194 mg/dL and 126 mg/dL and 129 mg/dL and 150 mg/dL and 154 mg/dL and 134 mg/dL
C57BL/6 mice; Non-fasted, 30 min
  Blood glucose: 134 mg/dL and 128 mg/dL and 101 mg/dL and 95 mg/dL and 122 mg/dL and 111 mg/dL and 121 mg/dL and 96 mg/dL
C57BL/6 mice; Overnight fasted, 0 min
  Blood glucose: 58 mg/dL and 52 mg/dL and 73 mg/dL and 46 mg/dL and 54 mg/dL and 55 mg/dL and 61 mg/dL
C57BL/6 mice; Overnight fasted, 30 min
  Blood glucose: 52 mg/dL and 53 mg/dL and 57 mg/dL and 60 mg/dL and 42 mg/dL and 55 mg/dL and 49 mg/dL
C57BL/6 mice; Overnight fasted, 60 min
  Blood glucose: 56 mg/dL and 57 mg/dL and 59 mg/dL and 48 mg/dL and 50 mg/dL and 45 mg/dL
C57BL/6 mice; mice denied access to food overnight, Fig. 2b
  blood glucose levels (in words): no effect on the blood glucose levels
C57BL/6 mice; mice with continued access to food, oral, Fig. 2a
  blood glucose levels (in words): modestly, but statistically significantly, reduced the blood glucose levels
[1]; C57BL/6, mouse, gastrocnemius muscle, po, Gastro. muscle, read-out: Conc. (µM) Gastro.
  concentration at 75 min: 8 µM
[1]; C57BL/6, mouse, heart, po, heart, read-out: Conc. (µM) Heart
  concentration at 75 min: 21.3 µM
[1]; C57BL/6, mouse, inguinal WAT, po, WAT, read-out: Conc. (µM) WAT
  concentration at 75 min: 6.8 µM
[1]; C57BL/6, mouse, soleus muscle, po, soleus, read-out: Conc. (µM) Soleus
  concentration at 75 min: 10.8 µM
[1]; Gastro. muscle, read-out: Conc. (µM) Gastro.
  concentration at 75 min: 9.3 µM and 7.1 µM and 8.8 µM
[1]; WAT, read-out: Conc. (µM) WAT
  concentration at 75 min: 5.9 µM and 5.0 µM and 4.1 µM
[1]; heart, read-out: Conc. (µM) Heart
  concentration at 75 min: 21.0 µM and 19.6 µM and 18.0 µM
[1]; skeletal muscle, WAT, heart, 75 min after oral 30 mg kg−1
  concentrations in tissues (in words): almost comparable concentrations among the skeletal muscle, WAT, and heart
[1]; soleus, read-out: Conc. (µM) Soleus
  concentration at 75 min: 13.8 µM and 9.8 µM and 11.1 µM
db/db mice; 28-day repeated-dose study in db/db mice
  visible sign of toxicity: did not find any visible sign of toxicity
db/db mice; [2]
  Body weight (g) Day 1: 25.2 g and 26.3 g and 27.7 g and 27.0 g and 28.4 g
  Glucose (mg/dl) Day 1: 122 mg/dL and 152 mg/dL and 138 mg/dL and 136 mg/dL and 89 mg/dL and 180 mg/dL
  Insulin (ng/ml) Day 1: 2.27 ng/mL and 4.08 ng/mL and 4.23 ng/mL and 4.25 ng/mL and 2.30 ng/mL and 3.38 ng/mL
db/db mice; [3]
  Body weight (g) Day 28: 37.0 g and 39.8 g and 40.4 g and 39.6 g and 39.4 g and 41.1 g
  Glucose (mg/dl) Day 28: 167 mg/dL and 157 mg/dL and 194 mg/dL and 145 mg/dL and 132 mg/dL and 155 mg/dL
  Insulin (ng/ml) Day 28: 7.52 ng/mL and 5.68 ng/mL and 8.16 ng/mL and 6.98 ng/mL and 8.68 ng/mL and 6.72 ng/mL
db/db mice; db/db mice, 10 mg/kg, WAT, individual animals
  Tissue weight (g) WAT: 1.93 g and 2.01 g and 2.15 g and 1.84 g and 1.69 g and 2.14 g
db/db mice; db/db mice, 10 mg/kg, heart, individual animals
  Tissue weight (g) Heart: 0.11 g and 0.10 g
db/db mice; db/db mice, 10 mg/kg, liver, individual animals
  Tissue weight (g) Liver: 1.31 g and 1.43 g and 1.57 g and 1.42 g and 1.77 g
db/db mice; db/db mice, 10 mg/kg, muscle, individual animals
  Tissue weight (g) Muscle: 0.17 g and 0.18 g
db/db mice; db/db mice, DS20060511 10 mg/kg, after repeated treatment, individual animals, 10 mg/kg
  HbA1c (%) Afrer: 3.6% and 3.4% and 3.3% and 3.8%
db/db mice; db/db mice, DS20060511 10 mg/kg, change from pre to after, individual animals, 10 mg/kg
  HbA1c (%) Delta: 0.38% and 0.35% and 0.34% and 0.46% and 0.33% and 0.7%
db/db mice; db/db mice, DS20060511 10 mg/kg, pre treatment (baseline), individual animals, 10 mg/kg
  HbA1c (%) Pre: 3.2% and 3.3% and 3.1% and 2.9%
db/db mice; db/db mice, 10 mg kg−1 day−1, day 1 to day 28
  blood glucose levels (in words): decreased significantly
db/db mice; db/db mice, 28-day treatment
  tissue weights of muscle, heart, WAT, liver; glycogen contents of muscle, heart, liver: no significant changes
db/db mice; db/db mice, chronic treatment, 4 weeks
  hemoglobin A1c (HbA1c) value (in words): significantly reduced
db/db mice; db/db mice, vs vehicle
  body weight, food intake, fasting blood glucose level, fasting plasma insulin levels: no statistically significant differences
db/db mice; 10 mg/kg, Day 1, 0 hr, individual animals, 10 mg/kg
  Blood glucose after refeeding: 91 mg/dL and 54 mg/dL and 72 mg/dL and 70 mg/dL and 85 mg/dL and 96 mg/dL
db/db mice; 10 mg/kg, Day 1, 0.5 hr, individual animals, 10 mg/kg
  Blood glucose after refeeding: 138 mg/dL and 112 mg/dL and 86 mg/dL and 108 mg/dL and 117 mg/dL and 130 mg/dL
db/db mice; 10 mg/kg, Day 1, 1 hr, individual animals, 10 mg/kg
  Blood glucose after refeeding: 162 mg/dL and 145 mg/dL and 120 mg/dL and 136 mg/dL and 126 mg/dL and 147 mg/dL
db/db mice; 10 mg/kg, Day 1, 2 hr, individual animals, 10 mg/kg
  Blood glucose after refeeding: 220 mg/dL and 154 mg/dL and 182 mg/dL and 126 mg/dL and 135 mg/dL and 171 mg/dL
db/db mice; 10 mg/kg, Day 1, 4 hr, individual animals, 10 mg/kg
  Blood glucose after refeeding: 189 mg/dL and 177 mg/dL and 142 mg/dL and 139 mg/dL and 179 mg/dL and 259 mg/dL
db/db mice; 10 mg/kg, Day 1, 6 hr, individual animals, 10 mg/kg
  Blood glucose after refeeding: 261 mg/dL and 247 mg/dL and 262 mg/dL and 136 mg/dL and 157 mg/dL and 294 mg/dL
db/db mice; 10 mg/kg, Day 1, -0.25 hr, individual animals, 10 mg/kg
  Blood glucose after refeeding: 124 mg/dL and 77 mg/dL and 78 mg/dL and 106 mg/dL and 118 mg/dL
db/db mice; 10 mg/kg, Day 1, individual animals, 10 mg/kg
  Blood glucose after refeeding AUC: 1236.0 and 1043.0 and 1019.0 and 813.5 and 939.5 and 1321.3
db/db mice; 10 mg/kg, Day 28, 0 hr, individual animals, 10 mg/kg
  Blood glucose after refeeding: 140 mg/dL and 130 mg/dL and 193 mg/dL and 159 mg/dL and 136 mg/dL
db/db mice; 10 mg/kg, Day 28, 0.5 hr, individual animals, 10 mg/kg
  Blood glucose after refeeding: 171 mg/dL and 147 mg/dL and 157 mg/dL and 168 mg/dL and 130 mg/dL and 217 mg/dL
db/db mice; 10 mg/kg, Day 28, 1 hr, individual animals, 10 mg/kg
  Blood glucose after refeeding: 187 mg/dL and 108 mg/dL and 139 mg/dL and 164 mg/dL and 142 mg/dL and 240 mg/dL
db/db mice; 10 mg/kg, Day 28, 2 hr, individual animals, 10 mg/kg
  Blood glucose after refeeding: 230 mg/dL and 128 mg/dL and 167 mg/dL and 182 mg/dL and 163 mg/dL and 274 mg/dL
db/db mice; 10 mg/kg, Day 28, 4 hr, individual animals, 10 mg/kg
  Blood glucose after refeeding: 256 mg/dL and 306 mg/dL and 290 mg/dL and 274 mg/dL and 297 mg/dL and 345 mg/dL
db/db mice; 10 mg/kg, Day 28, 6 hr, individual animals, 10 mg/kg
  Blood glucose after refeeding: 334 mg/dL and 357 mg/dL and 336 mg/dL and 316 mg/dL and 282 mg/dL and 356 mg/dL
db/db mice; 10 mg/kg, Day 28, -0.25 hr, individual animals, 10 mg/kg
  Blood glucose after refeeding: 157 mg/dL and 175 mg/dL and 184 mg/dL and 155 mg/dL and 151 mg/dL and 135 mg/dL
db/db mice; 10 mg/kg, Day 28, individual animals, 10 mg/kg
  Blood glucose after refeeding AUC: 1526.0 and 1424.3 and 1491.8 and 1462.3 and 1397.8 and 1875.8
